Source: patent US12024584B2, “Methods and compositions for polyurethane dispersions using caprolactam-derived solvents” (AdvanSix Resins & Chemicals LLC, priority 2017, dated 2024)

Experiments:
[1] = Solubility of DMPA in solvents
Procedure: Solubility was tested between the various solvents to determine their applicability in the PUD manufacturing processes. Solubility is the amount of a substance (coalescing agent) that dissolves in a unit volume of a liquid substance (solvent) to form a saturated solution under specified conditions of temperature and pressure. For the examples, amounts of […] (DMPA) were dissolved in each solvent.

[2] = Minimum film forming temperature, non-pigmented resin + coalescing agent; assay type: physicochemical; conditions: resin with 5 wt. % coalescing agent, film thickness 350 μm
[3] = Viscosity and storage stability of pigmented PUD formulations; assay type: physicochemical; conditions: 1 month at 50° C., FIG. 5
Excerpt: (§1) Tests were first performed to determine the coalescing agent level for pigmented and complete PUD formulations in order to achieve the optimum film formation. Complete paints were mixed with 0.7 wt. %, 1.5 wt. %, 3.0 wt. % and 5.0 wt. % of coalescing agents and applied on tin plated steel at a wet film thickness of around 250 μm, where the weight percentage was based on the pure polyurethane dispersion resins. […] Based on the observations, 3 wt. % dosage of coalescing agent was selected. Complete PUD formulations with pigments, fillers and other additives were prepared as per Table 5, and used to test and determine the coalescing properties of the caprolactam-derived solvents and other known coalescing agents.
Dispersions and emulsions tend to aggregate polyurethane particles during storage. One way to determine the stability of a polyurethane dispersion is to measure viscosity of the polyurethane dispersion over time. Viscosity is a measure of a solvent's resistance to gradual deformation by shear stress or tensile stress. […] The storage stability of the dispersions was evaluated based on variations between viscosity measurements performed on paints shortly after their preparation and after their storage for either one month at room temperature or one month at 50° C.

[4] = MFFT of pigmented and complete PUDs; assay type: physicochemical; conditions: pigmented and complete PUD, 3 wt. % coalescing agent
Excerpt: as §1, with “agents. The standard test for determining this temperature involves using a MFFT-BAR, as specified by standards ASTM D 2354 and ISO 2115. In general, the MFFT of a paint or coating is reduced temporarily by the use of coalescing agents.” for “agents.”

Open time (ASTM D7488) = assay type: physicochemical; conditions: ASTM D7488, 23±2° C., 50±5% RH, wet film 200 μm
Excerpt: as §1
Open times were determined according to the ASTM D7488 “Test Method for Open Time of Latex” standard and the tests were performed under controlled temperature and humidity (23±2° C. and 50±5% RH). In general, the paints were applied at a wet film thickness of 200 μm on contrasting sealed charts by means of a doctor blade applicator, and “X” marks are made immediately with the wide curved end of a wooden paint brush. After a determined time internal, the brush was dipped into the paint to be tested and brushing of the X-marks was started in perpendicular direction to the initial drawdown using 10 strokes back and forth to work the paint under test into the drawdown area. This procedure is repeated after several time intervals. After their complete drying (1 week), the painted panels are observed by two different observers and the time for which the “X” marks to become visible is considered as the open time.

[5] = Drying time (ASTM D1640 / ASTM D5895); assay type: physicochemical; conditions: 200 μm humid film; blends by ASTM D1640, single solvents by ASTM D5895
Excerpt: as §1
The drying times for the pigmented PUD formulations were determined according to the ASTM D1640 “Standard Test Methods for Drying, Curing, or Film Formation of Organic Coatings” standard or the ASTM D5895 “Standard Test Methods for Evaluating Drying or Curing During Film Formation of Organic Coatings Using Mechanical Recorders” standard. Four stages of drying can be identified depending on the trace left by the needle on the paint surface: Stage 1—Set-to-Touch time, Stage 2—Tack-Free time, Stage 3—Dry-Hard time, and Stage IV—Dry trough time. However, Stage IV is often hard to detect.
In general, the paints were applied at a humid film thickness of 200 μm by means of a bar coater on a Leneta sheet and the needle rate was set at 60 cm/hr.
For the present examples, the drying times for the 2:1 A:B, 1:1 A:B, and 1:2 A:B solvents were determined using the ASTM D1640 standard, and the drying times for NM CPL, NE CPL, NMP, NBP, ester amide, and ester alcohol were determined using the ASTM D5895 standard.

[6] = Persoz hardness of pigmented and complete PUDs; assay type: physicochemical; conditions: pigmented, in s
Excerpt: as §1
Persoz hardness measurements were performed on pigmented paints that were applied on tin plated steel using a doctor blade applicator at a dry film thickness (DFT) around 50 μm according to the ISO 1522 standard. […] For instance, the 28 day hardness for N-ethyl caprolactam (NE CPL) was approximately 104.6±0.5, while the 28 day hardness for NMP was approximately 108.8±2.4, and the 28 day hardness for ester alcohol and N-methyl caprolactam (NM CPL) were approximately 124.8±1 and 126.0±1, respectively, while the 28 day hardness for NBP was approximately 135.8±5.

[7] = Gloss of pigmented and complete PUDs (ISO 2813); assay type: physicochemical
Excerpt: as §1
(§2) Gloss measurements serve as an indicator of the paints surface quality. Gloss and color measurements were determined according to the ISO 2813 standard and the ISO 7724-2 standard (SCI-D65/10°), respectively.

[8] = Color of pigmented and complete PUDs (ISO 7724-2); assay type: physicochemical
Excerpt: as §1, §2

[9] = Scrub resistance of pigmented and complete PUDs (ISO 11998); assay type: physicochemical
Excerpt: as §1
Scrub resistance was tested according the ISO 11998 “Paints and Varnishes—Determination of Wet-Scrub Resistance and Cleanability of Coatings” standard. In this testing method, the paint was applied on a test panel (Leneta sheet) using a film applicator at the specific gap clearance. After drying and conditioning for four weeks at room temperature the coated panel was weighed and subject to 200 wet-scrub cycles in a scrub resistance machine. The panel was then washed, dried and weighed to determine the loss from which the mean loss in film thickness was calculated. […] For instance, N-methyl caprolactam (NM CPL), N-ethyl caprolactam (NE CPL), and blends thereof in the ratios of 1:2 and 1:1, all had less loss of thickness (2.035 μm, 1.797 μm, 1.39 μm, and 1.64 μm, respectively) as compared to NMP (2.090 μm) and NBP (2.213 μm).

[10] = Freeze and thaw stability (ASTM D2243-95); assay type: physicochemical
Procedure: Water-based emulsions and dispersions are susceptible to irreversible coagulation by freezing. Freeze and thaw stability was tested according the ASTM D2243-95 standard.
For these examples, pigmented PUD paints were subject to freeze-thaw cycles of 16 hours at −20° C. and 8 hours at room temperature and subsequently subject to visible observations. The paints were then applied on a tin plated steel plate at a thickness of approximately 200 μm for observing film properties.
In addition, the freeze-thaw stability was best for caprolactam-derived coalescing agents (NM CPL) and the blends even after subject to five cycles (see FIG. 9). In particular, the paints were visually observed after each cycle to see if there was any viscosity change, i.e., thickening of the paint. Then, the dry films of the coatings were observed visually.

Solubility [1]: 27.5 g/100 g of Solvent
MFFT [2]: −0.8±0.4 °C
storage stability (viscosity buildup) [3]: low viscosity buildup
MFFT [4]: −0.8 °C
Open Time (Open time (ASTM D7488)): 14 min
Drying Time [5]: 11.6 min
Persoz Hardness ([6]; 1 Day): 95.2 ± 1
Persoz Hardness ([6]; 7 Days): 101.2 ± 3
Persoz Hardness ([6]; 14 Days): 122.0 ± 3
Persoz Hardness ([6]; 21 Days): 124.0 ± 3
Persoz Hardness ([6]; 28 Days, listed as NM CPL): ~126.0±1
Persoz Hardness ([6]; 28 Days, listed as NMCPL): 126.0 ± 1
Gloss 20° ([7]; 20°): 1.3 ± 0
Gloss 60° ([7]; 60°): 3.0 ± 0
Gloss 85° ([7]; 85°): 23.2 ± 0.2
Color (Black background) L* ([8]; Black background): 94.09
Color (Black background) a* ([8]; Black background): −0.97
Color (Black background) b* ([8]; Black background): 2.25
Color (White background) L* ([8]; White background): 95.07
Color (White background) a* ([8]; White background): −0.52
Color (White background) b* ([8]; White background): 3.32
effect on color (yellowing) ([8]; pigmented PUD): no yellowing
Wt. Loss ([9]; 200 wet-scrub cycles): 3.763 g/m^2
Loss of thickness after 200 wet-scrub cycles ([9]; calculated from weight loss): 2.035 µm
SMILES: CN1CCCCCC1=O [N—MeCPL, N-methyl caprolactam]
freeze-thaw stability and film properties (comparison) ([10]; FIGS. 8 and 9): better freeze-thaw stability and film properties than NBP and ester alcohol
freeze-thaw stability: viscosity change (thickening of the paint) ([10]; cycles of 16 hours at −20° C. and 8 hours at room temperature): no such viscosity change even after five freeze-thaw cycle
